What is called Kd is the equilibrium constant for the complex coming apart.

For the assay, the target named is Bromodomain testis-specific protein (Homo sapiens, UniProt Q58F21). Put plainly: Binding affinity to human partial length BRDT bromodomain 1 (N21 to E137 residues) expressed in bacterial expression system by BROMOscan assay.

As to `Cc1sc2c(c1C)C(c1ccc(Cl)cc1)=N[C@@H](CC(=O)NCCCCNC(=O)COc1cccc3c1C(=O)N(C1CCC(=O)NC1=O)C3=O)c1nnc(C)n1-2` (stereo partly specified), the Kd is 0.006 to 0.019 µM.

The values above are taken from ChEMBL document CHEMBL4627273, “BET proteins: Investigating BRDT as a potential target for male contraception” (Bioorg Med Chem Lett, 2020).
